Test results from the NIST ThermoML archive (doi:10.1016/j.jct.2009.04.005).
Numbers after ± are expanded uncertainties.

Details: 298.15 K, Liquid; for vapor or sublimation pressure: Closed cell (Static) method; for mass density: Vibrating tube method

Row | SMILES | vapor or sublimation pressure | mass density
1 | CCCCCl [1-chlorobutane] | 13.52 ± 0.034 kPa | 880.805 ± 0.3 kg/m3
2 | CCCCO [butan-1-ol] | 0.91 ± 0.012 kPa | 805.802 ± 0.15 kg/m3
3 | CCC(C)O (stereo not drawn) [butan-2-ol] | 2.34 ± 0.02 kPa | 802.451 ± 0.31 kg/m3
4 | CCCCCC [hexane] | 20.22 ± 0.05 kPa | 654.96 ± 0.33 kg/m3
